These results are taken from ChEMBL document CHEMBL5465560, “Selectivity Literature for EUbOPEN Chemogenomic Library” (2024).

Each structure is given as a SMILES string.

The target of assay [1] is Mitogen-activated protein kinase 6 (Homo sapiens) (UniProt Q16659). The assay is described as follows: Selectivity interaction (KinomeScan (DiscoverX)) EUB0000666a MAPK6. As to conditions: at 10 µM.
Assay [2] concerns the target T1, Serine/threonine-protein kinase Nek9 (Homo sapiens) (UniProt Q8TD19).
T1 sequence (whole entry): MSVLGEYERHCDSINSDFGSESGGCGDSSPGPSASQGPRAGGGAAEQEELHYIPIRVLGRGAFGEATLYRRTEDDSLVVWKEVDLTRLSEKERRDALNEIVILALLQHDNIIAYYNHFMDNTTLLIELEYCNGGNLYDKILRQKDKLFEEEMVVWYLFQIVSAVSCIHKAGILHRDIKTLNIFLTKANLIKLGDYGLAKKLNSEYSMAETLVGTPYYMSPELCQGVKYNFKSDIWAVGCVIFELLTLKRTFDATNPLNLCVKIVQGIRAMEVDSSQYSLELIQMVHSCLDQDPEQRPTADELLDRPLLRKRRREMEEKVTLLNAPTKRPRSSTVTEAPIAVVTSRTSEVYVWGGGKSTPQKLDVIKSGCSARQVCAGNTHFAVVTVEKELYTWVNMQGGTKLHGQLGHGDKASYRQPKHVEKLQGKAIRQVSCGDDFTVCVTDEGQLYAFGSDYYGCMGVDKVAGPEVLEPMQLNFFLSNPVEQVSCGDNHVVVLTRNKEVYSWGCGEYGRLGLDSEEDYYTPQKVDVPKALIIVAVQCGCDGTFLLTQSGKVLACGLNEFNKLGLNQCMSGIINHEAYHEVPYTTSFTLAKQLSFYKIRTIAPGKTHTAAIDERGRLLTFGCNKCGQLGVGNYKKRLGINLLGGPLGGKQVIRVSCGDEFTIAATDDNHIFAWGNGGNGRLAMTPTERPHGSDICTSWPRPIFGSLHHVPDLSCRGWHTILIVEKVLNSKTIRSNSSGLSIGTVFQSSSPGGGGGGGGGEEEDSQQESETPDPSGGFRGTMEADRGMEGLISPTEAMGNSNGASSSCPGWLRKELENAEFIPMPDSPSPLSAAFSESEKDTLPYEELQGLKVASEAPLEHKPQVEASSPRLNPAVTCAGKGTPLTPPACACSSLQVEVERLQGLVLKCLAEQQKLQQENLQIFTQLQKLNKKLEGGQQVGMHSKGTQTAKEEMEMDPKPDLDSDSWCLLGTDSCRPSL
The assay is described as follows: Selectivity interaction (Kinase panel (Invitrogen)) EUB0000639a NEK9. As to conditions: at 200 nM.

In assay [3] the target is Sodium-dependent dopamine transporter (Homo sapiens, UniProt Q01959). As to the kind of experiment: Selectivity interaction (Safety Panel 44tm (Eurofins)) EUB0000162b SLC6A3. As to conditions: at 10 µM.
Assay [4] concerns the target Casein kinase II subunit alpha (Homo sapiens, UniProt P68400). As to the kind of experiment: Selectivity interaction (Ambit KINOMEscan and KiNATiv profiling in Jurkat cells) EUB0000090b CSNK2A1. As to conditions: at 1 µM. In kind it is cell-based.
In assay [5] the target is T2, Dual specificity mitogen-activated protein kinase kinase 4 (Homo sapiens) (UniProt P45985).
T2 sequence (whole entry): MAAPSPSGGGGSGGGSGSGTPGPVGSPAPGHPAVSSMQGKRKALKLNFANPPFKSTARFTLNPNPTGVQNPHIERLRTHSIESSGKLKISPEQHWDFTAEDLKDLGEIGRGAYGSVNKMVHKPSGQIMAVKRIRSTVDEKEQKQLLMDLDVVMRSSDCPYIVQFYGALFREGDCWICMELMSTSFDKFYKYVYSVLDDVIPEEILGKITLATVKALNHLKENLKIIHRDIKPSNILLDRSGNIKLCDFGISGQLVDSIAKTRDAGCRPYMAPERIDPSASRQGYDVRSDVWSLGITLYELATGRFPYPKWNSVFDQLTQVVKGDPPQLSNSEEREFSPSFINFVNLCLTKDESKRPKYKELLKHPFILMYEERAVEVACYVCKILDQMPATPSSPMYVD
The assay is described as follows: Selectivity interaction (KinomeScan (DiscoverX)) EUB0001049a MAP2K4. As to conditions: at 1 µM.

For assay [6], the target named is Sodium-dependent serotonin transporter (Homo sapiens, UniProt P31645). As to the kind of experiment: Selectivity interaction (Panel of kinases, GPCRs, ion channels and transporters (enzymatic assay)) EUB0000223bCl SLC6A4.
Assay [7] addresses T3, Activated CDC42 kinase 1 (Homo sapiens, UniProt Q07912). The assay is described as follows: Selectivity interaction (KinomeScan (DiscoverX)) EUB0000618a TNK2. As to conditions: at 10 µM.
The target in assay [8] is T4, Tyrosine-protein kinase Mer (Homo sapiens) (UniProt Q12866).
T4 sequence (whole entry): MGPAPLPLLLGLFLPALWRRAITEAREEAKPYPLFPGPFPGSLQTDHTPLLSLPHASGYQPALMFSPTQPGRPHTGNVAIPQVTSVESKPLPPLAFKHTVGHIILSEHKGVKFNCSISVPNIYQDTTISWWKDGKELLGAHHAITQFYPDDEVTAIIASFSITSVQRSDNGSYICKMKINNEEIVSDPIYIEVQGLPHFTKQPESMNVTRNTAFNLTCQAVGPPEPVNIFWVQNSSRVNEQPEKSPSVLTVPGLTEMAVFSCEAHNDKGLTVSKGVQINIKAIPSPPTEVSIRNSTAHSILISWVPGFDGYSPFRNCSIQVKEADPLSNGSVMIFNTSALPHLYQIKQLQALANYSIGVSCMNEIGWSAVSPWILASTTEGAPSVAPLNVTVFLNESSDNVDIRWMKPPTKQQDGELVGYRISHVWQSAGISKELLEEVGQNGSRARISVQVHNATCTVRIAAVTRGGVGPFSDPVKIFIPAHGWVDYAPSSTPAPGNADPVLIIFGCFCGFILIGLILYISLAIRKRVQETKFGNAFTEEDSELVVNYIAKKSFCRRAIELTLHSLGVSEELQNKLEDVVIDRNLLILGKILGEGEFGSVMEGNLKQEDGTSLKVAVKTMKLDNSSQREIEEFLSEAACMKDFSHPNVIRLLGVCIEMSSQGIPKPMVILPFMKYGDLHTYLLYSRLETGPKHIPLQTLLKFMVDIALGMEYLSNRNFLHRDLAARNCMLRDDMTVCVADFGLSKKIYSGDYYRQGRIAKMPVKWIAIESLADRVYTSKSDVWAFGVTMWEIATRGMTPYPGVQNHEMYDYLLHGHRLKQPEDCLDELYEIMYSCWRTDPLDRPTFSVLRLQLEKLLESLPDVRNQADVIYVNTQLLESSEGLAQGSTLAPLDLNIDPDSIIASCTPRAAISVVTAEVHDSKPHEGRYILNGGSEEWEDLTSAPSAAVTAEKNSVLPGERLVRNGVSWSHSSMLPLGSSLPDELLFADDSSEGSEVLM
The assay is described as follows: Selectivity interaction (Kinase panel (DSF assay)) EUB0001558a MERTK.

In assay [9] the target is T3, Activated CDC42 kinase 1. As to the kind of experiment: Selectivity interaction (Kinase panel (KiNativ target engagement assay in Jurkat cells)) EUB0001635a TNK2. In kind it is cell-based. As to conditions: Selectivity number of off-targets 0.0, Selectivity number of targets 233.0, Source Knowledge https://www.sciencedirect.com/science/article/pii/S2451945619300674?via%3Dihub, at 1 µM.

T3 sequence (Q07912 whole entry, looked up): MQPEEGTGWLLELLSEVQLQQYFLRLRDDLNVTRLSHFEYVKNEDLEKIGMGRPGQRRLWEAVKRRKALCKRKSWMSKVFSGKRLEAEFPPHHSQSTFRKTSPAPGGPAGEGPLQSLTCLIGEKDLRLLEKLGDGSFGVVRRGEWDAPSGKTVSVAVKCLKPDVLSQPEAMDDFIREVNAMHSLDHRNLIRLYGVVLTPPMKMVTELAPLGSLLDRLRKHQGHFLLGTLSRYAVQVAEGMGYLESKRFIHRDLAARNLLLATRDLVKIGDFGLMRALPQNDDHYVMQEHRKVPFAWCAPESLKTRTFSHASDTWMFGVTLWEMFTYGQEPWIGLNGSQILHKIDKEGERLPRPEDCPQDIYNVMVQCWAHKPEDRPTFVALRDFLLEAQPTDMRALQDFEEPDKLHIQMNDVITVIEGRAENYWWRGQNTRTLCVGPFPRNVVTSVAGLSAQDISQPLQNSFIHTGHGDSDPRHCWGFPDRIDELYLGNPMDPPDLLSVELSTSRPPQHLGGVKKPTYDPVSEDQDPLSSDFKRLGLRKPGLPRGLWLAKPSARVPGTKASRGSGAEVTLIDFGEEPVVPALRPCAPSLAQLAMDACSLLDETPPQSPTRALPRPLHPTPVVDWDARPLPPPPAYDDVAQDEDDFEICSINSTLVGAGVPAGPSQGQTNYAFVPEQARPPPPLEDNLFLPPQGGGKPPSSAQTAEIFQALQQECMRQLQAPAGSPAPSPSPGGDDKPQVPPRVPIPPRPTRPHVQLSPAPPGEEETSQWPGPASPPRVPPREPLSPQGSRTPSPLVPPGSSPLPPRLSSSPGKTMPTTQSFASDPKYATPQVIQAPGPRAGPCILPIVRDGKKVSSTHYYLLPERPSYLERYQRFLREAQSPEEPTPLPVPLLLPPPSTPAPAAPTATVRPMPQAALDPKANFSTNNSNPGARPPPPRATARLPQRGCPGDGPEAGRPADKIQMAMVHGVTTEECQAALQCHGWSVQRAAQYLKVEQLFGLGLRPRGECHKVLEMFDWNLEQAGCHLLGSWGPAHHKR
Sequence of Sodium-dependent serotonin transporter (P31645 whole entry, looked up): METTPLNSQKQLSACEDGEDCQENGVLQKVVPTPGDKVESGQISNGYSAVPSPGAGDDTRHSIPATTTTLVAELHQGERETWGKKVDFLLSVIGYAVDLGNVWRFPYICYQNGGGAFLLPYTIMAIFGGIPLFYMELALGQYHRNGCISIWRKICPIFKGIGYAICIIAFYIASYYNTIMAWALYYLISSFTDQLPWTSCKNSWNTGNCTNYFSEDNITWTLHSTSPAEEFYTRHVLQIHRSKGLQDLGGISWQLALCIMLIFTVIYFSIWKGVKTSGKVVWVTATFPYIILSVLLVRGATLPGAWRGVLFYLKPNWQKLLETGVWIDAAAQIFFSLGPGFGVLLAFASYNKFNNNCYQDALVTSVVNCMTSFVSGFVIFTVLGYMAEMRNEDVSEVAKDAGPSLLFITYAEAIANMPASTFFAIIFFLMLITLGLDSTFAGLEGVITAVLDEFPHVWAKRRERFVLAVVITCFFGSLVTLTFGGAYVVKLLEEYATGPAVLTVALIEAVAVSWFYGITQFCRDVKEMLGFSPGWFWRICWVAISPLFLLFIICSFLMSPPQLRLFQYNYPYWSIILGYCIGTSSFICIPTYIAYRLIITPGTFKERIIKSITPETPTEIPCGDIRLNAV
Sequence of Sodium-dependent dopamine transporter (Q01959 whole entry): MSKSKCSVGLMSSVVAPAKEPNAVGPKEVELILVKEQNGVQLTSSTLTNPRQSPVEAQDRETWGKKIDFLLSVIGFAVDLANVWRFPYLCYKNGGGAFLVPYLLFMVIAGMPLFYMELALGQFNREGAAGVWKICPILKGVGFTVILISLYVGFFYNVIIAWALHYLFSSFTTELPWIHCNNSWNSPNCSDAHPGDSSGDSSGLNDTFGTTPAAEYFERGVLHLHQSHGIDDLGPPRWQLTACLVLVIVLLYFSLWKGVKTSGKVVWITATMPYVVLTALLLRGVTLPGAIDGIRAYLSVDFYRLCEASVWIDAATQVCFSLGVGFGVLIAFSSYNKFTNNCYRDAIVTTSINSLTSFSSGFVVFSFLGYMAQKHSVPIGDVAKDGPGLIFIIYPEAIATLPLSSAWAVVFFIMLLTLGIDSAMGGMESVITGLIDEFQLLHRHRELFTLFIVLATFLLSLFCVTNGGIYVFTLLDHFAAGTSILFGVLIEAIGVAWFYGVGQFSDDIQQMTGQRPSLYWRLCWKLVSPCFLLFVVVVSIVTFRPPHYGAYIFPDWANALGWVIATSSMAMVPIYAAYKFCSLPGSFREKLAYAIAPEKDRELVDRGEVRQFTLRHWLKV
Sequence of Mitogen-activated protein kinase 6 (Homo sapiens) (Q16659 whole entry): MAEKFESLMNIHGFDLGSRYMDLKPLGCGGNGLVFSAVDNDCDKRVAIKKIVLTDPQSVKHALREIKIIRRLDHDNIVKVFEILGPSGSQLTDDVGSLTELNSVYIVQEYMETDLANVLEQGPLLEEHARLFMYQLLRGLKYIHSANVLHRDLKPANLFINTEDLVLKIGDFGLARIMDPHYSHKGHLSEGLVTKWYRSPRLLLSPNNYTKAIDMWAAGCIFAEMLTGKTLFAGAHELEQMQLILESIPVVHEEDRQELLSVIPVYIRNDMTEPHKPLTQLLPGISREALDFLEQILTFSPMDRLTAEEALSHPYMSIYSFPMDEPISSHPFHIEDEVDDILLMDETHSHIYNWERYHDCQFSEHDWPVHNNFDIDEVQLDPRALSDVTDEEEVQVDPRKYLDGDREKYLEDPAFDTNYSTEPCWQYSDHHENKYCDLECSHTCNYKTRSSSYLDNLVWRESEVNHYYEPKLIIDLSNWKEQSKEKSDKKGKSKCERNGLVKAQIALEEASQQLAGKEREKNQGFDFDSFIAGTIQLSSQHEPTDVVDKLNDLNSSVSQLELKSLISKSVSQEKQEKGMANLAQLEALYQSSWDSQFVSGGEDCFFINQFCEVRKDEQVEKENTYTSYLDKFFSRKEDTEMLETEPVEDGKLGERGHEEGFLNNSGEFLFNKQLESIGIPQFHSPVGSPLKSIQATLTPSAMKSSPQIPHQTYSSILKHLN
Sequence of Casein kinase II subunit alpha (P68400 whole entry, looked up): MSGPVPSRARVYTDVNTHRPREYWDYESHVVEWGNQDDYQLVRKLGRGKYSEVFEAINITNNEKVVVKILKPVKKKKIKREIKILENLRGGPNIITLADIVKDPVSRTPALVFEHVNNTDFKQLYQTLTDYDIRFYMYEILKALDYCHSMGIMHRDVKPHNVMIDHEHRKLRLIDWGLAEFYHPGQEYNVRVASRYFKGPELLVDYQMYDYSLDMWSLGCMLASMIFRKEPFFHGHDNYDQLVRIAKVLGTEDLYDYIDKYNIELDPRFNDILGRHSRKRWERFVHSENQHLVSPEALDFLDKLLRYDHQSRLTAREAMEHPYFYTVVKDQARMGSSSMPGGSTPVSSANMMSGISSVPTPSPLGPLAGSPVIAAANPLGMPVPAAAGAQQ

`O=C(NOC[C@H](O)CO)c1ccc(F)c(F)c1Nc1ccc(I)cc1F`: in assay [1], the % of control is 83%.

The molecule `CC[C@@H]1[C@H](F)C(=O)N[C@@H]1COc1nccc2cc(C(N)=O)c(OC)cc12` [ZIMLOVISERTIB] showed a % of inhibition in assay [2] of 2.82%.

`CN(C)C(=O)Cn1cc(-c2ccc(-c3cncc4ccccc34)cc2)cn1` registered a % of control in assay [3] of 87%.

With `CN(C)C/C=C/C(=O)Nc1ccc(C(=O)N2CCCC(Nc3ncc(Cl)c(-c4c[nH]c5ccccc45)n3)C2)cc1` (centres undefined), the % of control in [4] was 78%.

In [5], `COc1cc(Nc2nc(C)cc(-c3cnn4nc(OC)ccc34)n2)cc(C(F)(F)F)c1` showed a % of control of 74%.

On to `COc1cc(C(=O)N2CC[C@@H](O)[C@@H](N)C2)cc2nc(-c3cc4ccccc4n3CC3CC3)n(C)c12`, for which the pXC50 in [6] is 4.3 M.

At Activated CDC42 kinase 1 [7], `O[C@H]1CC[C@H](Nc2ncc3nc(Nc4c(F)cc(F)cc4F)n([C@H]4CCOC4)c3n2)CC1` yielded a % of control of 100%.

`CC(C)(O)[C@H](F)CN1Cc2cc(NC(=O)c3cnn4cccnc34)c(N3CCOCC3)cc2C1=O` returned a dTM in assay [8] of 1.7 K.

Turning to `C=CC(=O)Nc1ccc(C(=O)Nc2[nH]nc3c2CN(C(=O)N[C@H](CN(C)C)c2ccccc2)C3(C)C)cc1`, the % of engagement on Activated CDC42 kinase 1 [9] was -3.6%.
